Among the data in US20250179103A1, “6-OXODECAHYDROPYRROLO[1,2-A][1,5]DIAZOCINE AND 6-OXODECAHYDRO-4H-PYRROLO[2,1-D][1,5]THIAZOCINE DERIVATIVES AS STAT3 AND STAT6 MODULATORS FOR THE TREATMENT OF CANCER AND INFLAMMATORY CONDITIONS” (Recludix Pharma, Inc., priority 2022, published 2025) are IC50 values, retold here.

For assay [1], the system named is pY705-STAT3 in Peripheral Blood Mononuclear Cells (PBMC). Nature of the assay: MSD-pSTAT-PBMC Assay (pSTAT3, IL-6 stimulated). It counts as cell-based, Human. Particulars: Homo sapiens, compound 3 hrs, then 10 ng/mL IL-6 for 10 min. Summed up: (§1)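 Human PBMCs were preincubated 3 h with compound, then stimulated 10 min with 10 ng/mL IL-6 (pY705-STAT3) or 1 ng/mL IL-4 (pY641-STAT6). Lysates were read by MSD sandwich immunoassay, capturing total STAT and detecting phospho-STAT. Signal was unstimulated-subtracted and DMSO-normalised, with variable-slope IC50 binned A–D.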

The subject of assay [2] is pY641-STAT6 in Peripheral Blood Mononuclear Cells (PBMC). Nature of the assay: MSD-pSTAT-PBMC Assay (pSTAT6, IL-4 stimulated). It counts as cell-based, Human. Conditions: Homo sapiens, compound 3 hrs, then 1 ng/mL IL-4 for 10 min. Summed up:
as §1

Usually IC50 stands for the concentration that inhibits the measured activity by half. The low end stands for higher potency, the high end for lower potency. On to `CC(=O)N1CC[C@H]2CC[C@@H](C(=O)N(C)c3ccccc3)N2C(=O)[C@@H](NC(=O)c2cc3cc(C(F)P(=O)(OCOC(=O)C(C)(C)C)OCOC(=O)C(C)(C)C)ccc3s2)C1` (stereo partly drawn) [Compound 295, ((((2-(((5S,8S, 10aR)-3-acetyl-8-(methyl (phenyl)carbamoyl)-6-oxodecahydro-pyrrolo[1,2-a][1,5]diazocin-5-yl)carbamoyl)benzo[b]thiophen-5-yl)fluoro-methyl)phos-phoryl)bis(oxy))bis (methylene) bis(2,2-dimethylpro-panoate)], for which the IC50 in assay [1] and in assay [2] was 100 to 1000 nM each time.

For the compound `CCCC(=O)SCCOP(=O)(OCCSC(=O)CCC)C(F)(F)c1ccc2ccc(C(=O)N[C@H]3CN(CC(F)F)CC[C@H]4CC[C@@H](C(=O)N(C)C5CCN(S(C)(=O)=O)CC5)N4C3=O)cc2c1` [Compound 347, S,S′-(((((7-(((5S,8S,10aR)-3-(2,2-difluoroethyl)-8-(methyl(1-(methylsulfonyl)piperidin-4-yl)carbamoyl)-6-oxodeca hydropyrrolo[1,2-a][1,5]diazocin-5-yl)carbamoyl)naphthalen-2-yl)difluoromethyl)phosphoryl)bis(oxy))bis(ethane-2,1-diyl))dibutanethioate], the half-maximal inhibitory concentration (IC50) in assay [1] and in assay [2] was 100 to 1000 nM in each case.

On to `CCCC(=O)SCCOP(=O)(OCOC(=O)OC(C)C)C(F)(F)c1ccc2ccc(C(=O)N[C@H]3CCN(CC(F)F)C[C@H]4CC[C@@H](C(=O)N5CC(c6cc[nH]c(=O)c6)CC56CC6)N4C3=O)cc2c1` (stereo partly drawn) [Compound 334, S-(2-((((7-(((5S,8S,10aR)-2-(2,2-difluoroethyl)-6-oxo-8-(6-(2-oxo-1,2-dihydropyridin-4-yl)-4-azaspiro[2.4]heptane-4-carbonyl)decahydropyrrolo[1,2-a][1,4]diazocin-5-yl)carbamoyl)naphthalen-2-yl)difluoromethyl) (((isopropoxycarbonyl)oxy)methoxy)phosphoryl)oxy)ethyl)butanethioate], for which the IC50 was 100 to 1000 nM in assay [1] and not above 100 nM in assay [2].

Turning to `CCCOC(=O)OCOP(=O)(OCOC(=O)OCCC)C(F)(F)c1ccc2sc(C(=O)N[C@H]3CN(C(C)=O)CC[C@H]4CC[C@@H](C(=O)N(C)c5ccccc5)N4C3=O)cc2c1` [Compound 286, ((((2-(((5S, 8S,10aR)-3-acetyl-8-(methyl (phenyl)carbamoyl)-6-oxodecahydro-pyrrolo[1,2-a][1,5]diazocin-5-yl)carbamoyl)benzo[b]thiophen-5-yl)difluoro-methyl)phosphoryl)bis(oxy)) bis(methylene) dipropyl bis(carbonate)], the IC50 in assay [1] and in assay [2] was 100 to 1000 nM each time.

For the compound `CCCC(=O)SCCOP(=O)(OCCSC(=O)CCC)C(F)(F)c1ccc2ccc(C(=O)N[C@H]3CN(C(=O)c4n[nH]c5ccc(C)cc45)CC[C@H]4CC[C@@H](C(=O)N5CC(c6ccccc6)[C@@H](C#N)C5)N4C3=O)cc2c1` (relative stereo) [Compound 336, S,S′-(((((7-(((5S,8S,10aR)-8-((rel-trans)-3-cyano-4-phenylpyrrolidine-1-carbonyl)-3-(5-methyl-1H-indazole-3-carbonyl)-6-oxodecahydropyrrolo[1,2-a][1,5]diazocin-5-yl)carbamoyl)naphthalen-2-yl)difluoromethyl)phosphoryl)bis(oxy))bis(ethane-2,1-diyl)) dibutanethioate], the IC50 in assay [1] is 1000 to 3000 nM; in assay [2], not above 100 nM.

Regarding `CC(=O)N1CC[C@H]2CC[C@@H](C(=O)N(C)C3CCN(S(C)(=O)=O)CC3)N2C(=O)[C@@H](NC(=O)c2cc3cc(C(F)(F)P(=O)(OCOC(=O)C(C)(C)C)OCOC(=O)C(C)(C)C)ccc3s2)C1` [Compound 312, ((((2-(((5S, 8S,10aR)-3-acetyl-8-(methyl(1-(methyl-sulfonyl)piperidin-4-yl)carbamoyl)-6-oxodecahydro-pyrrolo[1,2-a][1,5]diazocin-5-yl)carbamoyl)benzo[b]thiophen-5-yl)difluoro-methyl)phos-phoryl)bis(oxy))bis (methylene) bis(2,2-dimethylpro-panoate)], the IC50 in assay [1] is more than 3000 nM; in assay [2], 100 to 1000 nM.
